The values below come from ChEMBL document CHEMBL3621041, “Optimization of a Novel Binding Motif to (E)-3-(3,5-Difluoro-4-((1R,3R)-2-(2-fluoro-2-methylpropyl)-3-methyl-2,3,4,9-tetrahydro-1H-pyrido[3,4-b]indol-1-yl)phenyl)acrylic Acid (AZD9496), a Potent and Orally Bioavailable Selective Estrogen Receptor Downregulator and Antagonist” (J Med Chem, 2015).

pIC50: −log10 of the molar value. Converted amounts (≈) assume the structure as drawn. The source made the active and inactive calls. The rule behind the calls is not given here.

One series deals with T1, Progesterone receptor (Homo sapiens, UniProt P06401).
T1 sequence (P06401 whole entry): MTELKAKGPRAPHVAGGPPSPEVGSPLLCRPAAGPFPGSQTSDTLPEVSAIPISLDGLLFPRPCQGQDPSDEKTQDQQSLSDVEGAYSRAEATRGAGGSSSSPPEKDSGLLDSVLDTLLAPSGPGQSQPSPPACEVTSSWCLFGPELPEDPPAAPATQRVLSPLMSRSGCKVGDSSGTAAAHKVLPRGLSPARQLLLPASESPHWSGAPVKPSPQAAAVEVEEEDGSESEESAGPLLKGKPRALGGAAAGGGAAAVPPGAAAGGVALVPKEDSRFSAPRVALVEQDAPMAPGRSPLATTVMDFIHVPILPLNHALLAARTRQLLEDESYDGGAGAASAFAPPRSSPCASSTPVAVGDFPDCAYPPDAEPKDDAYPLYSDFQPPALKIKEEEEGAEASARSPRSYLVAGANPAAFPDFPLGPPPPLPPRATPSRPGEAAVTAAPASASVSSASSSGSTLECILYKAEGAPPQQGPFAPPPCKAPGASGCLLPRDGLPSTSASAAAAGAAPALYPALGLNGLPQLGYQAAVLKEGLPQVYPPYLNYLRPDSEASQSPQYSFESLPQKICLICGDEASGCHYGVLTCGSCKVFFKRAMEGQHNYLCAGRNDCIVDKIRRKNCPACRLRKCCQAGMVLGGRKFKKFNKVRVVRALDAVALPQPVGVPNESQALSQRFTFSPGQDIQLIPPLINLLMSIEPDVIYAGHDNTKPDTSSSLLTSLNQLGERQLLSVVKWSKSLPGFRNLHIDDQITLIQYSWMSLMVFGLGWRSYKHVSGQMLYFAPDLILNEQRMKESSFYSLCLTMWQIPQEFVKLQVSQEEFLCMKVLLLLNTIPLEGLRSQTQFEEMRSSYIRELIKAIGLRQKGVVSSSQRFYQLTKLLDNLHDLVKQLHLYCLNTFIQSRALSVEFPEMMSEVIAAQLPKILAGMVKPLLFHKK
The series is described as follows: Agonist activity at progesterone receptor in human MCF7 cells. The class given is cell-based.

The target of series [1] is T2, Estrogen receptor (Homo sapiens, UniProt P03372).
T2 sequence (P03372 whole entry): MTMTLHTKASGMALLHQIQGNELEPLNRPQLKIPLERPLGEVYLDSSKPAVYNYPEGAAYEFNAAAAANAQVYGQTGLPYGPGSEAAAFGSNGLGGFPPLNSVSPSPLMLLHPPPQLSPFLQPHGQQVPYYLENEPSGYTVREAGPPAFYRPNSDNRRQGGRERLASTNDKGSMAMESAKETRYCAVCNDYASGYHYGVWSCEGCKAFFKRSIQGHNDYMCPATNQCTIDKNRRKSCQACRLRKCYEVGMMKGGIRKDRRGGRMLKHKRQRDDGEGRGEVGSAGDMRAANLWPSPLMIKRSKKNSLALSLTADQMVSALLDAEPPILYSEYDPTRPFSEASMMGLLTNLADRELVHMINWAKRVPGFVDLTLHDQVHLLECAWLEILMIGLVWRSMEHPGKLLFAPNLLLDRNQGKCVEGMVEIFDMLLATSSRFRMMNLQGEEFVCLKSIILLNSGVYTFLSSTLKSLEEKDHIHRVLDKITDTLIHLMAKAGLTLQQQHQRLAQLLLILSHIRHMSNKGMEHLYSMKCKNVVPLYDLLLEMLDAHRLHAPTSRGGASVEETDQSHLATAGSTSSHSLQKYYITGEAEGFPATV
Description: Binding affinity to ERalpha receptor (unknown origin)

Series [2] deals with T2, Estrogen receptor. The source holds these as a separate data set.
Description: Antagonist activity at ERalpha receptor in human MCF7 cells
Another series has as its system MCF7. Put plainly: cells. As to conditions: Homo sapiens, MCF7, read-out: pIC50 (converted).
The target in series [3] is T3, Progesterone receptor (Homo sapiens) (UniProt P06401).
T3 sequence (whole entry): T1 sequence (P06401 whole entry)
Put plainly: Agonist activity at progesterone receptor (unknown origin) at 100 uM.

Series [4] is described as follows: Lipophilicity, log D of the compound at pH 7.4. Particulars: buffer. It counts as physicochemical.
A short description of series [5]: Thermodynamic solubility of the compound in 0.1 M phosphate buffer at pH 7.4 after 24 hrs. It counts as physicochemical. Particulars: read-out: Therm_solubility.
Series [6] in a line: Fraction unbound in Han Wistar rat 10% plasma by equilibrium dialysis. The class given is ADME, cell-free. Background: In equilibrium dialysis only unbound substance equilibrates across the membrane.
Series [7] in a line: Intrinsic clearance in rat cryopreserved hepatocytes assessed per 10^6 cells. It counts as ADME, cell-based, Hepatocyte. As to conditions: read-out: CLH.
Series [8] is described as follows: Intrinsic clearance in human cryopreserved hepatocytes assessed per 10^6 cells. It counts as ADME, cell-based, Hepatocyte. Particulars: read-out: CLH.
The nature of series [9]: Volume of distribution at steady state in Han Wistar rat at 2 umol/kg, iv and 5 umol/kg, po. The class given is ADME, organism-based. As to conditions: in vivo, read-out: Vdss.
Series [10] can be described thus: Clearance in Han Wistar rat at 2 umol/kg, iv and 5 umol/kg, po. The class given is ADME, organism-based. Particulars: in vivo.
The nature of series [11]: Oral bioavailability in Han Wistar rat at 5 umol/kg. It counts as ADME, organism-based. As to conditions: in vivo.
The nature of series [12]: Fraction unbound in human 10% plasma by equilibrium dialysis. It counts as ADME, cell-free.

Description for MCF7: Antiproliferative activity against human MCF7 cells

On to `C[C@@H]1Cc2c([nH]c3ccccc23)[C@@H](c2ccc(/C=C/C(=O)O)cc2)N1CCO`, for which the results for the negative-log IC50 (pIC50) on Progesterone receptor, against Estrogen receptor [1] and against Estrogen receptor [2] were less than 4.00, 6.16 and 5.88, respectively. Also, the IC50 in the series with MCF7 was 813 nM.

Take `C[C@@H]1Cc2c([nH]c3ccc(O)cc23)[C@@H](c2ccc(Cl)cc2)N1CCO`: the pIC50 (in general, −log10 of the IC50, conventionally taken in molar units) at Progesterone receptor is 7.48; against Estrogen receptor [1] it was 7.65; against Estrogen receptor [2] it was 7.36. Moreover, the IC50 in the series with MCF7 is greater than 31600 nM.

`CC/C(=C(\c1ccccc1)c1ccc(/C=C/C(=O)O)cc1)c1ccccc1` had a pIC50 at Progesterone receptor of less than 4.00. Also, in series [3], the percent agonist activity result is “inactive”. In addition, in the series on MCF7, the IC50 was 295 nM.

The compound `C[C@@H]1Cc2c([nH]c3ccccc23)[C@@H](c2ccc(/C=C/C(=O)O)cc2)N1CC(C)(C)F` gave a pIC50 on Progesterone receptor of less than 5.50. In the series on MCF7, the IC50 is 0.324 nM.

For `C[C@@H](CO)CN1[C@H](c2ccc(/C=C/C(=O)O)cc2)c2[nH]c3ccccc3c2C[C@H]1C`, the pIC50 at Progesterone receptor is less than 4.00; on Estrogen receptor [1], 7.01; against Estrogen receptor [2], 7.34.

`C[C@]12CC[C@@H]3c4ccc(O)cc4C[C@@H](CCCCCCCCC[S+]([O-])CCCC(F)(F)C(F)(F)F)[C@H]3[C@@H]1CC[C@@H]2O` (stereo partly specified) [FULVESTRANT]: the pIC50 on Progesterone receptor is less than 4.00. Also, in the series with MCF7, the IC50 is 0.1 nM.

In the case of `C[C@@H]1Cc2c([nH]c3ccccc23)[C@@H](c2ccc(Cl)cc2)N1CCO`, the pIC50 on Progesterone receptor is less than 4.00; on Estrogen receptor [1], 7.40; against Estrogen receptor [2] it was 7.07. Besides, the percent agonist activity in [3] was found to be 15%. Also, in the series on MCF7, the IC50 was 13800 nM.

In turn, `CC/C(=C(\c1ccc(O)cc1)c1ccc(/C=C/C(=O)O)cc1)c1ccccc1` had a pIC50 on Progesterone receptor of less than 4.50. In addition, the percent agonist activity entry in series [3] is “inactive”.

For `O=C(O)CCN1CCc2c([nH]c3ccccc23)C1c1ccc(Cl)cc1` (racemic), the pIC50 at Progesterone receptor was less than 4.50; against Estrogen receptor [1], 4.86; at Estrogen receptor [2], 5.43. Besides, the logD (usually lipophilicity at a set pH, counting ionised and neutral species) in series [4] was found to be 1.6. Also, in [5], the solubility thermodynamic at 24 h was greater than 1600 µM. Further, the fraction unbound – broadly, the share of the substance not bound to proteins or other matrix – in series [6] amounted to 0.072. The hepatocyte CLint in [7] came to 29 µL/min/1e6 cells; in series [8], 19 µL/min/1e6 cells. Further, the Vd in series [9] worked out at 0.6 L/kg. Moreover, in series [10], the clearance turned out to be 4 mL/min/kg. In [11], the bioavailability (as a rule, dose-corrected exposure relative to a reference, in per cent) came to 85%.

For `C[C@@H]1Cc2c([nH]c3ccccc23)[C@@H](c2ccc(Cl)cc2)N1C[C@H](C)C(=O)O`, the pIC50 on Progesterone receptor was 7.89; at Estrogen receptor [1], 7.15; on Estrogen receptor [2] it was 7.52. Also, the pH-dependent lipophilicity (logD) in series [4] came to 2.8. Further, in [5], the solubility thermodynamic at 24 h is 1440 µM (≈ 551 µg/mL). For the same compound, the unbound share (fraction unbound) was determined as 0.032 in [6] and 0.015 in series [12]. Moreover, the hepatocyte CLint is 82 µL/min/1e6 cells in [7] and 23 µL/min/1e6 cells in series [8]. Also, the Vd in series [9] amounted to 0.34 L/kg. Also, the clearance in series [10] was determined as 14 mL/min/kg. The bioavailability in series [11] is 42%. In addition, in the series with MCF7, the IC50 was greater than 31600 nM.

The compound `CCC(=C(c1ccc(O)cc1)c1ccc(OCCN(C)C)cc1)c1ccccc1` showed a pIC50 at Progesterone receptor of less than 4.00. In addition, the IC50 with MCF7 was 0.537 nM.

Consider `CC/C(=C(\c1ccccc1)c1ccc(OCCN(C)C)cc1)c1ccccc1` [TAMOXIFEN], for which the IC50 in the series with MCF7 is 57.5 nM.

For the compound `C[C@H](CO)CN1[C@H](c2ccc(/C=C/C(=O)O)cc2)c2[nH]c3ccccc3c2C[C@H]1C`, the figures for the pIC50 at Progesterone receptor, on Estrogen receptor [1] and against Estrogen receptor [2] were less than 4.00, 7.16 and 7.33, respectively. In series [4], this compound displayed a log distribution coefficient (logD) of 1.6. For the same compound, the solubility thermodynamic at 24 h in [5] was greater than 1400 µM. The fraction unbound in series [6] was 0.091; in [12], 0.046. Also, the hepatocyte CLint in series [7] amounted to 21 µL/min/1e6 cells; in series [8], 26 µL/min/1e6 cells. The IC50 in the series with MCF7 was 22.4 nM.

As to `CC(C)CN1[C@H](c2c(F)cc(/C=C/C(=O)O)cc2F)c2[nH]c3ccccc3c2C[C@H]1C`, the pIC50 at Progesterone receptor was less than 5.50; against Estrogen receptor [1], 9.15; against Estrogen receptor [2], 9.38. Further, the IC50 in the series on MCF7 is 0.229 nM.

Turning to `C[C@@H]1Cc2c([nH]c3ccccc23)[C@@H](c2ccc(Cl)cc2)N1CCC(=O)O`, the values for the negative logarithm of the IC50 (pIC50) at Progesterone receptor, against Estrogen receptor [1] and at Estrogen receptor [2] were less than 4.00, 5.75 and 6.11, respectively. Also, the percent agonist activity in [3] came to 15%. For the same compound, the IC50 with MCF7 was greater than 25100 nM.
